Experimental data published in patent US11780841B2, “3,6-methano-1H-pyrrolo[3,2-b]pyridine and 3,6-methano-1H-pyrrolo[3,2-c]pyridine compounds and medicaments using same” (priority 2018, dated 2023).

Test system: recombinant rabies virus 1088 strain expressing Gaussia Luciferase (GLuc) (1088/GLuc)
Type: cell-based
Settings: read-out: Anti-rabies activity

Compared with `CC(C)C[C@@H]1[C@@H]2[C@@H]3CN[C@@]1(C(=O)NCc1ccccc1)C[C@@H]3CN2Cc1ccc(N(C)C)cc1` [IF-848], `CC(C)C[C@@H]1[C@@H]2[C@@H]3CN[C@@]1(C(=O)NCc1cccc(O)c1)C[C@@H]3CN2Cc1ccc(N(C)C)cc1` [IF-866] is higher in IC50: 5 to 10 µM for the first, 10 to 30 µM for the second.

`CC(C)C[C@@H]1[C@@H]2[C@@H]3CN[C@@]1(C(=O)NCc1ccccc1)C[C@@H]3CN2Cc1ccc(C(C)(C)C)cc1` [IF-849] and `CCOc1ccc(CN2C[C@H]3C[C@]4(C(=O)NCc5ccccc5)NC[C@H]3[C@H]2[C@H]4CC(C)C)cc1` [IF-853] fall in the same range of IC50: 5 to 10 µM for the first, 5 to 10 µM for the second.

Compared with `CC(C)CC[C@@H]1[C@@H]2[C@@H]3CN[C@@]1(C(=O)NCc1ccccc1)C[C@@H]3CN2CC(C)C` [IF-850], `CC(C)CCN1C[C@H]2C[C@]3(C(=O)NCc4ccccc4)NC[C@H]2[C@H]1[C@H]3CC(C)C` [IF-851] is higher in IC50: 5 to 10 µM for the first, 10 to 30 µM for the second.

First: CC(C)C[C@@H]1[C@@H]2[C@@H]3CN[C@@]1(C(=O)NCc1ccc4ccccc4c1)C[C@@H]3CN2Cc1ccccc1 [IF-854]
Second: CC(C)CC1C2C=NC3(C(=O)NCc4ccc5ccccc5c4)C(C2)CN(Cc2ccccc2)C13 (centres unmarked) [IIB-102]
The IC50 of the first is higher: 5 to 10 µM for the first, less than 5 µM for the second.

First: CCN1C[C@@H]2[C@H]3CN(Cc4ccc(C)cc4)[C@@H]2[C@@H](CC(C)C)[C@]1(C(=O)NCc1ccccc1)C3 [IF-855]
Second: Cc1ccc(CN2C[C@H]3C[C@@]4(C(=O)NCc5ccccc5)[C@H](CC(C)C)[C@@H]2[C@@H]3CN4CC(C)C)cc1 [IF-856]
The IC50 of the first is higher: 5 to 10 µM for the first, less than 5 µM for the second.

`Cc1ccc(CN2C[C@H]3C[C@@]4(C(=O)NCc5ccccc5)[C@H](CC(C)C)[C@@H]2[C@@H]3CN4C(=O)Cc2ccccc2)cc1` [IF-859] and `Cc1ccc(CN2C[C@H]3C[C@@]4(C(=O)NCc5ccccc5)[C@H](CC(C)C)[C@@H]2[C@@H]3CN4C(=O)OCc2ccccc2)cc1` [IF-862] fall in the same range of IC50: 5 to 10 µM for the first, 5 to 10 µM for the second.

First: COC(=O)N1C[C@@H]2[C@H]3CN(Cc4ccc(C)cc4)[C@@H]2[C@@H](CC(C)C)[C@]1(C(=O)NCc1ccccc1)C3 [IF-860]
Second: Cc1ccc(CN2C[C@H]3C[C@@]4(C(=O)NCc5ccccc5)[C@H](CC(C)C)[C@@H]2[C@@H]3CN4C(=O)OCC(C)C)cc1 [IF-861]
The IC50 of the first is higher: 10 to 30 µM for the first, 5 to 10 µM for the second.

First: Cc1ccc(CN2C[C@H]3C[C@@]4(C(=O)NCc5ccccc5)[C@H](CC(C)C)[C@@H]2[C@@H]3CN4C(=O)NCc2ccccc2)cc1 [IF-864]
Second: CC(C)CC1C2C3C=NC1(C(=O)NCc1ccccc1)CC3CN2Cc1ccc(Cl)cc1 (centres unmarked) [IIF-83]
The IC50 of the first is higher: 10 to 30 µM for the first, less than 5 µM for the second. The second is the more potent here.

Compared with `CC(C)C[C@@H]1[C@@H]2[C@@H]3CN[C@@]1(C(=O)NCc1ccc(O)cc1)C[C@@H]3CN2Cc1ccc(N(C)C)cc1` [IF-867], `CC(C)CC1C2C=NC3(C(=O)NCc4ccccc4)C(C2)CN(Cc2ccc(N(C)C)cc2)C13` (centres unmarked) [IIB-94] is lower in IC50: 10 to 30 µM for the first, 5 to 10 µM for the second. The second is the more potent here.

First: CC(C)CC1C2C=NC3(C(=O)NCc4ccccc4)C(C2)CN(Cc2ccc(Cl)cc2)C13 (centres unmarked) [IIB-83]
Second: Cc1ccc(CN2CC3CC4C=NC3(C(=O)NCc3ccccc3)C2C4CC(C)C)cc1 (centres unmarked) [IIB-86]
The IC50 of the first is lower: less than 5 µM for the first, 5 to 10 µM for the second. The first is the more potent here.

First: CC(C)CC1C2C=NC3(C(=O)NCc4ccccc4)C(C2)CN(Cc2cccc(Cl)c2)C13 (centres unmarked) [IIB-84]
Second: COc1ccc(CN2CC3CC4C=NC3(C(=O)NCc3ccccc3)C2C4CC(C)C)cc1 (centres unmarked) [IIB-85]
The IC50 of the first is lower: less than 5 µM for the first, 5 to 10 µM for the second. The first is the more potent here.

First: CC(C)CC1C2C=NC3(C(=O)NCc4ccccc4)C(C2)CN(Cc2ccc(C(C)(C)C)cc2)C13 (centres unmarked) [IIB-95]
Second: CCOc1ccc(CN2CC3CC4C=NC3(C(=O)NCc3ccccc3)C2C4CC(C)C)cc1 (centres unmarked) [IIB-97]
The IC50 of the first is lower: 5 to 10 µM for the first, 10 to 30 µM for the second. The first is the more potent here.

`CC(C)CC1C2C=NC3(C(=O)NCc4ccccc4)C(C2)CN(Cc2ccc(OC(F)(F)F)cc2)C13` (centres unmarked) [IIB-96] and `CC(C)CCC1C2C=NC3(C(=O)NCc4ccccc4)C(C2)CN(Cc2ccc(O)cc2)C13` (centres unmarked) [IIB-101] fall in the same range of IC50: 5 to 10 µM for the first, 5 to 10 µM for the second.

`CC(C)CCN1CC2CC3C=NC2(C(=O)NCc2ccc(Cl)cc2)C1C3CC(C)C` (centres unmarked) [IIB-103] and `CC(C)CCN1CC2CC3C=NC2(C(=O)NCc2ccc(F)cc2)C1C3CC(C)C` (centres unmarked) [IIB-104] fall in the same range of IC50: 5 to 10 µM for the first, 5 to 10 µM for the second.

With `CC(C)CC1C2C3C=NC1(C(=O)NCc1ccccc1)CC3CN2Cc1cccc(Cl)c1` (centres unmarked) [IIF-84] the IC50 was 5 to 10 µM.
